For one compound, selectivity ratio, IC50 and EC50 results are on record in publication PMC3389674, “Comparison of Soluble Guanylate Cyclase Stimulators and Activators in Models of Cardiovascular Disease Associated with Oxidative Stress” (Frontiers in Pharmacology, 2012).

As a reminder, the IC50 is the concentration that gives 50% inhibition. Usually EC50 stands for the concentration giving half of the maximal effect. A lower EC50 goes with a more potent agent.

Data set [1] deals with T1, OATP1B1 (Homo sapiens, UniProt Q9Y6L6).
T1 sequence (Q9Y6L6 1-691): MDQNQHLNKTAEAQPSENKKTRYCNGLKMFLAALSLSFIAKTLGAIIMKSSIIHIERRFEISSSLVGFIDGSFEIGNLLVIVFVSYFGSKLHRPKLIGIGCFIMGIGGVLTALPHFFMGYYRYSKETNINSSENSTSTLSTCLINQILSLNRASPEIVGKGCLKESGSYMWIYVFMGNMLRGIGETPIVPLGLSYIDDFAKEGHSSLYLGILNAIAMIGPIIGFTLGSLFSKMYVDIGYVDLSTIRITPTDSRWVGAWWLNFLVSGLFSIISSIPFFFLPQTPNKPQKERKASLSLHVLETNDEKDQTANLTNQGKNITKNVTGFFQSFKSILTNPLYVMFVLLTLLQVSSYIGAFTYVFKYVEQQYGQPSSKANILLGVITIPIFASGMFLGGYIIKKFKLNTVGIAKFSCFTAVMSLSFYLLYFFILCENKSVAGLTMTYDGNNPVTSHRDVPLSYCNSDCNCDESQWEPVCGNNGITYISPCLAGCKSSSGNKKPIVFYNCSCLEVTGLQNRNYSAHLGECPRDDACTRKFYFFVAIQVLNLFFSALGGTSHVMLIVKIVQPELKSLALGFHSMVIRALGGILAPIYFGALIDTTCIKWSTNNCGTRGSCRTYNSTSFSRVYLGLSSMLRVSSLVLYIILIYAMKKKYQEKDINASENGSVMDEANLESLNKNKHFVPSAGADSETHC
As to the kind of experiment: in vitro selectivity profile: OATP1B1 transporter activity. In kind it is cell-based. As to the method: The secondary pharmacological profile (i.e., sGC-independent activity) of GSK2181236A was assessed in cell-based functional assays by characterizing the interaction between GSK2181236A and 38 distinct human enzymes, ion channels, transporters, and G-protein-coupled receptors including 5-HT (5-HT1B/2A/2C/3), 5-HT transporter (SERT), adenosine (A2a), adrenergic (α1B/2C, β2), Aurora B kinase, cycoloxygenase-2 (COX-2), CaV1.2, cytochrome P450 (CYP2C19, 2D6, and 3A4), dopamine (D2), dopamine transporter (DAT), gamma-aminobutyric acid (GABAA), glycogen synthase kinase-3 (GSK3β) histamine (H1), KV1.5, KV7.1, KV11.1, lymphocyte-specific protein tyrosine kinase (LCK), L-monoamine oxidase (MAO-B) muscarinic (M1/2), NaV1.5, nicotinic (α1 nAChR), noradrenaline transporter (NET), opioid (κ, μ), organic anion transporting polypeptide C (OATP1B1), phosphodiesterase 5 (PDE5), phosphatidylinositol 3-kinase (PI3Kγ), pregnane X receptor (PXR), tachykinin (NK1), and vasopressin (V1a).

Data set [2] deals with T2, rat sGC (Rattus norvegicus, UniProt P20595).
T2 sequence (P20595 1-619): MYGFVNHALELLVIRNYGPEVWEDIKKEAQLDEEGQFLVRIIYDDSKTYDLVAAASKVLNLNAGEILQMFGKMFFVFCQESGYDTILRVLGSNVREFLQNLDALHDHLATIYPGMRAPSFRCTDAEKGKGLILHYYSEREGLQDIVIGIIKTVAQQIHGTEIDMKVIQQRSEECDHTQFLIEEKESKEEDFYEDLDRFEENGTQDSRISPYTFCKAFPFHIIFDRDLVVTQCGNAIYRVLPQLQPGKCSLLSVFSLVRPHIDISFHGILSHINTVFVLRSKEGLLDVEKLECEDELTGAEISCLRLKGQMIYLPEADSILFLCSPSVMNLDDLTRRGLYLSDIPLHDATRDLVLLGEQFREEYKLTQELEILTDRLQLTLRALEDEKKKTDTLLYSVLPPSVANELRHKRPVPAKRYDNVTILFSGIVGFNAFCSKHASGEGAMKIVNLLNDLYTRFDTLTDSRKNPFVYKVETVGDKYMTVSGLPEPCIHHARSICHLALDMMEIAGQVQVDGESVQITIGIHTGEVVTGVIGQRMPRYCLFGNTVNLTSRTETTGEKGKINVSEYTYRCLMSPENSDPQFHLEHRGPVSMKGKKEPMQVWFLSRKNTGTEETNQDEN
T2 sequence (P19686 1-690 partner): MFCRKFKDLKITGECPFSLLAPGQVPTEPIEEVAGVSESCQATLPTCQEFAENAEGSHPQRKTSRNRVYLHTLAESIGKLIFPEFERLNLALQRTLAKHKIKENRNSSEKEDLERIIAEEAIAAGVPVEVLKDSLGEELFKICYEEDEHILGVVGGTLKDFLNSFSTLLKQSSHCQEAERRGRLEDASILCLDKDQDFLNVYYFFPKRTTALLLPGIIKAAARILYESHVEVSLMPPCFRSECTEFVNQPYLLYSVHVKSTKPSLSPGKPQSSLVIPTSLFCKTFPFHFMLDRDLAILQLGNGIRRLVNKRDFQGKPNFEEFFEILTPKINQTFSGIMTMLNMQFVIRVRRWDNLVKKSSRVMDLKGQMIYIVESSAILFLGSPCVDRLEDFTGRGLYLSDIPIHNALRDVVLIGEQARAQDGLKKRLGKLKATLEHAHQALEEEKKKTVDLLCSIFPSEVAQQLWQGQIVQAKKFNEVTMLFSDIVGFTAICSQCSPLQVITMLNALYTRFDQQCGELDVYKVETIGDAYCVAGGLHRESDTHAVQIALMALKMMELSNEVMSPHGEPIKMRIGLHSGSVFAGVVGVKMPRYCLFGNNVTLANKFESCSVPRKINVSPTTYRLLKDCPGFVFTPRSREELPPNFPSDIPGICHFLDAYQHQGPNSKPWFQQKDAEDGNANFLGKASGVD
Put plainly: primary cell-free rat sGC enzyme assay (cGMP formation). In kind it is biochemical. To be noted: data not shown.

Take `Cc1cc(-c2ccc(OC(F)(F)F)cc2)ccc1COc1ccccc1-c1cccc(-n2ncc(C(=O)O)c2C(F)(F)F)n1` [GSK2181236A, 1-(6-{2-[({3-methyl-4′-[(trifluoromethyl)oxy]-4-biphenylyl}methyl)oxy]phenyl}-2-pyridinyl)-5-(trifluoromethyl)-1H-pyrazole-4-carboxylic acid]: in data set [1] (human, cell-based functional assay (human OATP1B1 transporter), vs P-VASP EC50 12.7 nM, read-out: selectivity for sGC over OATP1B1), the selectivity ratio was found to be 23. Besides, in data set [1] (read-out: IC50, inhibition of transporter activity), the IC50 came out at 0.3 µM. In addition, in data set [2], the EC50 was determined as 0.027 µM.
